{"source": "patent US10801024B2", "about": "“Inhibition of lncRNA HOTAIR and related materials and methods” (Indiana University Research and Technology Corporation, priority 2015, dated 2020)", "key": {"[1]": {"system": "A2780_CR5", "assay": "Mouse xenograft: tumor volume and survival", "type": "in vivo", "details": "CDDP-treated mice", "protocol": "All animal studies adhered to ethical regulations and protocols. To assess tumorigenicity of cells, cultured A2780_CR5 cells were washed with PBS trypsinized and counted with trypan blue, re-suspended in 1:1 PBS/matrigel (BD Bioscience) and 2×10^6 cells were injected subcutaneously into the left flank of 3- to 4-week-old female nude athymic mice (BALB/c-nu/nu; Harlan, Indianapolis, Ind.). Engrafted mice (n=6 per group) were inspected three times per week for tumor appearance by visual observation and palpation. Once tumors were ˜200 mm^3, mice were treated with either CDDP (2 mg kg−1) or PNA (1 mg kg−1) or both CDDP and PNA twice per week for two weeks. Blood samples were collected by puncturing the left lateral saphenous vein with a needle and collected using a capillary tube. Tumor length (l) and width (w) were measured biweekly using digital calipers and tumor volume (v) was calculated as v=½×1×w2. No randomization was used and no animals were excluded from the final data. […]"}, "[2]": {"system": "IL-6, MMP-9 and ALDH1A1", "assay": "Mouse xenograft: blood IL-6 (ELISA) and tumor expression of HOTAIR targets", "type": "in vivo, mice", "details": "CDDP alone; after the second bi-weekly treatment"}, "[3]": {"assay": "Mouse xenograft: body weight, spleen and liver weight, histology", "type": "in vivo", "method": "In another exemplary method, to investigate anti-tumor properties of pHLIP-PNA3 in vivo, BALB/C mice were subcutaneously injected with CDDP-resistant A2780_CR5 (2×10^6 cells). Once tumors reached ˜200 mm^3, mice were injected intravenously (two times per week for 2 weeks) with pHLIP-PNA3 (1 mg/kg), pHLIP-control PNA (1 mg/kg), and/or CDDP (2 mg/kg i.p.) at indicated times (FIG. 14A). Tumor volume was reduced (p=0.02) in mice co-administered pHLIP-PNA3+CDDP compared to pHLIP-control PNA+CDDP (FIG. 13A). Tumor volume in mice treated with either pHLIP-PNA alone was similar to vehicle-treated mice (FIG. 14A). Importantly, survival of mice treated with pHLIP-PNA3 vs. mock was increased 1.6-fold (39 vs. 25 days; FIG. 13B), and body weight was similar among groups (FIG. 14B), showing that PNAs are non-toxic in vivo. […]\nAll animal studies adhered to ethical regulations and protocols. To assess tumorigenicity of cells, cultured A2780_CR5 cells were washed with PBS trypsinized and counted with trypan blue, re-suspended in 1:1 PBS/matrigel (BD Bioscience) and 2×10^6 cells were injected subcutaneously into the left flank of 3- to 4-week-old female nude athymic mice (BALB/c-nu/nu; Harlan, Indianapolis, Ind.). […] Tumor length (l) and width (w) were measured biweekly using digital calipers and tumor volume (v) was calculated as v=½×1×w2. […]"}, "[4]": {"system": "A2780_CR5", "assay": "Survival assay after inhibiting HOTAIR and/or EZH2", "type": "cell-based", "details": "dsiRNA targeting HOTAIR combined with GSK126; platinum-resistant cells", "method": "In one exemplary method, the effect of inhibiting both HOTAIR and EZH2 on cancer cell survival was investigated. A highly platinum-resistant ovarian cancer cell line (A2780_CR5) was treated with dsiRNA targeting HOTAIR and/or a pharmacological inhibitor of EZH2 (GSK126), followed by survival assays. As an additive (P<0.05) effect of inhibiting HOTAIR-EZH2 on drug sensitivity and survival was observed (versus inhibiting either factor alone; FIG. 2A), it was next of interest to target the HOTAIR-EZH2 interaction by targeting the 89-mer minimum interacting region of HOTAIR, which has been shown. mFold (Zuker, M., Mfold web server for nucleic acid folding and hybridization prediction. Nucleic acids research, 2003. 31(13):3406-3415, incorporated herein by reference in its entirety) was used to validate the predicted secondary structure of this site, observing a highly predicted, single-stranded region in all 19 predicted structures, which complemented previous such structures (FIG. 3A)."}, "[5]": {"system": "HOTAIR expression", "assay": "Cytokine/chemokine screen, HOTAIR levels", "type": "cell-based", "details": "A2780 p cells, 10 ng/mL", "method": "FIG. 11A is a line graph showing changes in HOTAIR target gene expression in A2780 p cells treated with IGF, TGF-β, EGF, IL-1α, or TNF-α (10 ng/mL). Asterisks indicate P<0.05 (*) or P<0.01 (**).\nAs a positive association between HOTAIR and the master transcription factor NF-κB has been reported. […] In an exemplary method, a cytokine/chemokine screen was performed, followed by the measurement of HOTAIR levels. Of the cytokines examined, HOTAIR expression was increased (P<0.05) by TNF-α (>15-fold) and TGF-β (5-fold) compared to control (FIG. 11A). To further confirm HOTAIR induction of NF-κB, a luciferase reporter construct containing the E-selectin promoter was used (861 base pairs containing 3 canonical NF-κB-p65-binding sites as a positive control; FIG. 3B) (Ozes, O. N., et al., NF-κB activation by tumour necrosis factor requires the Akt serine-threonine kinase. Nature, 1999. 401(6748):82-85, incorporated herein by reference in its entirety) and a 1.4-fold increase (p<0.05) in luciferase activity was observed by ectopic overexpression of HOTAIR compared to vector control (FIG. 11B), which was decreased (P<0.05) by PNA3 (FIG. 11B). PNA3 treatment of breast and ovarian cancer cells decreased (P<0.05) IL-6 secretion into the media (FIG. 11C). […]"}, "[6]": {"system": "A2780_CR5", "assay": "Cell invasion assay (matrigel)", "type": "cell-based", "details": "FIGS. 5D-5E (A2780_CR5 and SKBR-3)", "method": "In another exemplary method, ovarian cancer cells and breast cancer cells were treated with PNA3 or control PNA. Decreased (P<0.05) invasion of A2780_CR5 (2-fold, FIG. 5D), Kuramochi (0.6-fold, FIG. 9A) and SKBR-3 (2-fold, FIG. 5E) was observed, and the effect of PNA3 on cell invasion was essentially similar to knocking-down HOTAIR expression using siRNA (FIGS. 5D-5E). PNA3 or control PNA had no effect on A2780p and MDA-MB-231 cell invasion (FIGS. 9B-9C).\nCells were grown in 6 cm culture plates until 70% confluence and treated with either PNA3 or control PNA (1 μM final) for 24 hr. Next day, the plates were trypsinized, serially diluted and 50,000 cells were seeded inside a matrigel invasion chamber insert (Corning, Cat #354480) in serum-free media supplemented with 0.1% BSA. Media supplemented with 20% FBS was added to the bottom of the well and 48 hrs later, cells were fixed and dyed using Wright-Giemsa method (Hema 3 Stat pack, Cat #23-122-929) and invasion was counted under a light microscope at 20× magnification. Relative cell invasion was measured by dividing the control number of invaded cells by the PNA-treated samples."}}, "data": [{"compound": "[NH2][Pt]([NH2])([Cl])[Cl]", "note": "[CDDP, cisplatin]", "values": [{"measurement": "H&E slides of tumors", "setting": "[1]", "value": "fewer cells"}, {"measurement": "blood IL-6 levels compared to controls", "setting": "[2]", "value": "increased"}, {"measurement": "spleen size compared to mock treated", "setting": "[3]; CDDP treatment", "value": "increased"}, {"measurement": "liver size", "setting": "[3]; similar trend as spleen", "value": "none were statistically significant"}]}, {"compound": "CC[C@H](C)n1cc(C)c2c(C(=O)NCc3c(C)cc(C)[nH]c3=O)cc(-c3ccc(N4CCNCC4)nc3)cc21", "note": "[GSK126]", "values": [{"measurement": "effect on drug sensitivity and survival of inhibiting both HOTAIR and EZH2 versus either alone", "setting": "[4]", "value": "additive"}]}, {"compound": "TGF-β", "values": [{"measurement": "HOTAIR expression increase compared to control", "setting": "[5]", "value": 5, "unit": "fold"}]}, {"compound": "TNF-α", "values": [{"measurement": "HOTAIR expression increase compared to control", "setting": "[5]", "value": "> 15", "unit": "fold"}]}, {"compound": "dsiRNA targeting HOTAIR: dsiRNA targeting human HOTAIR, sense SEQ ID NO: 22, antisense SEQ ID NO: 23 (sense UUCUAAAUCCGUUCCAUUCCACUGCGA; antisense GCAGUGGAAUGGAACGGAUUUAGAA; antisense strand carries a 5'-phosphate, other chemistry not given here, further chemistry not given here)", "values": [{"measurement": "effect on drug sensitivity and survival of inhibiting both HOTAIR and EZH2 versus either alone", "setting": "[4]", "value": "additive"}, {"measurement": "cell invasion, in words", "setting": "[6]", "value": "decrease"}]}]}
